What was measured:
[1] = test system: melanoma cells from B16 mice; test: Effect on melanin content (melanin synthesis) in melanoma cells from B16 mice; assay type: cell-based; conditions: Mus musculus, 72 h, 3 days, n = 4, read-out: The inhibitory rate for melanin synthesis
Procedure: The experiments were: melanoma cells from B16 mice (purchased from Shanghai Fuxiang Biotechnology Co., Ltd.) were adjusted with DMEM cell culture medium containing 10% fetal bovine serum, 100 U/mL penicillin and 100 U/mL streptomycin to reach a density of 1×10^5/mL, and were seeded into 6-well cell culture plates (3 mL per well). After cultured at 37° C., 5% CO2 for 24 h, the test sample (Example 2) was added. After 3 days, the supernatant was discarded, and the cells were washed with PBS, then added with trypsin to degest the cells for 3 min (0.5 mL per well). Afterwards, 2 mL cell culture medium was added to terminate the digestion reaction, and cells of each group were counted. After centrifugation, the supernatant was discarded, and 0.5 mL of 1 mol/L NaOH solution was added. After vibrated for 1 h, a 1500 r/min centrifugation was conducted for 5 min. 200 μL was respectively taken and transferred to a 96-well cell culture plate, and tested for absorbance at 450 nm via a microplate reader to calculate the inhibitory rate for melanin synthesis. In the experiment, the control wells were added with the same volume amount of PBS as that of the sample. […]
A is the absorbance of the wells containing drug (i.e., sample wells or positive control wells), B is the number of cells in the wells containing drug, C the absorbance of the control wells, D is the number of cells in control wells.

[2] = molecular target: T1, intracellular tyrosinase in melanoma cells from B16 mice (Mus musculus, UniProt P11344); test: Effect on intracellular tyrosinase activity in melanoma cells from B16 mice; assay type: cell-based; conditions: 3 days, n = 4, read-out: Inhibitory rate for tyrosinase activity
T1 construct: B16 melanin cells were adjusted with DMEM cell culture medium; endogenous in cells; host or cells: B16 mouse melanoma cells
T1 sequence (P11344 19-533): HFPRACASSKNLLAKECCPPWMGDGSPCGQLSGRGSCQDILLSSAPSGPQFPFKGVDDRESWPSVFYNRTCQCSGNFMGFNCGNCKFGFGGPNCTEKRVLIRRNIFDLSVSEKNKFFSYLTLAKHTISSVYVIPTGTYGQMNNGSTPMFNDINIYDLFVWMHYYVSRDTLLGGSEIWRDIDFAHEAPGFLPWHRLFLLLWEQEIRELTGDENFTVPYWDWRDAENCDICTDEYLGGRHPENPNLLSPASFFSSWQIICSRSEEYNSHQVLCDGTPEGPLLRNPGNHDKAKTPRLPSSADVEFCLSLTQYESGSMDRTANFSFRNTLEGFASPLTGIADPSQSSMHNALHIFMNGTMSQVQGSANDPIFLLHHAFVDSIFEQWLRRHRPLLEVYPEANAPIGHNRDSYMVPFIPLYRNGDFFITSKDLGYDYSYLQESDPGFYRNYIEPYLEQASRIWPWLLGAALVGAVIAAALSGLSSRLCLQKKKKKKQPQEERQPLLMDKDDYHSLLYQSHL
Procedure: The experiments were: B16 melanin cells were adjusted with DMEM cell culture medium containing 10% fetal bovine serum, 100 U/mL penicillin and 100 U/mL streptomycin to reach a density of 1×10^5/mL, and were seeded into 6-well cell culture plates (3 mL per well). After cultured at 37° C., 5% CO2 for 24 h, the test sample (Example 2) was added. After 3 days, the supernatant was discarded, and the cells were washed with PBS for twice. After each well was added 180 μL PBS solution containing 1% (v/v) Triton X-100, the cells were subjected to ultrasonication under ice bath, then each well was added 20 μL 10 mmol/L of L-DOPA, incubated at 37° C. for 60 min. A 1500 r/min centrifugation was conducted for 5 min. 100 μL was respectively taken and transferred to a 96-well cell culture plate, and tested for absorbance at 492 nm via a microplate reader to calculate the inhibitory rate for intracellular tyrosinase activity. The control wells were added with the same volume amount of PBS as that of the sample. The positive control employs arbutin, at an effect concentration of 200 μM. Inhibition rate=(1−A/B)×100%
wherein A is the mean absorbance of the wells containing drug (i.e., sample wells or positive control wells), B is the mean absorbance of the control wells.

OC[C@H]1O[C@@H](Oc2ccc(O)cc2)[C@H](O)[C@@H](O)[C@@H]1O [Arbutin]
inhibition at 200 µM [1]: 46.7 ± 10% | inhibition at 400 µM [2]: 49 ± 9.44%

From patent publication US10098372B2, “Whitening composition and the use thereof” (INFINITUS (CHINA) COMPANY LTD, priority 2015, dated 2018)
